Three substances from patent US20140335154A1, “METHODS AND FORMULATIONS TO ACHIEVE TUMOR TARGETED DOUBLE STRANDED RNA MEDIATED CELL DEATH” (MULTICELL IMMUNOTHERAPEUTICS, INC., priority 2013, published 2014) can be followed below.

Data set [1] has as its system human HCC cell line PLC/PRC/5. Description: Cytokine production in HCC cell line PLC/PRC/5. Particulars: for TNFalpha induction: PLC/PRC/5 cancer cells. Format: cell-based. The protocol:
(§1) Analysis of Cytokines Release: Cells were plated into 96-well plate with the density of 2×10^4 cells/well, cultured and were allowed to become subconfluent. After changing to fresh medium, the cells were treated with 5 bp pA:pU with analogues of 5 bp pA:pU, 70 bp pA:pU, analogues 70 bp pA:pU, or control Poly(A:U) and Poly(I:C) at the final concentration of 100 μg/ml. Cells without treatment were the negative control and cells treated with 1 μg/ml LPS were the positive control. After incubation, the supernatants were collected, centrifuged and then put at −80° C. immediately. Select cytokines, such as IL-6, IL-12(p70), IFN-α2, Tumor Necrosis Factor-α (TNF-α), TNF-related apoptosis-inducing ligand (TRAIL), were analyzed by Bio-Plex Assay kits.
(§2) Experiments carried out in vitro compare low molecular weight dsRNAs (<15 bps) with high molecular weight dsRNAs (>70 bps). Data generated with dsRNA of similar size and chemical composition obtained by fractionation, indicate that low molecular weight dsRNAs (<15 bps) have substantial TNFalpha and cell death inducing properties in human monocytic THP-1 cells. […] The pro-inflammatory effect of low molecular weight dsrnas is evaluated by measuring cytokine production using elisa (r&d systems) in FIG. 3a as well as in FIG. 3b. cell proliferation, death, and apoptosis are measured by Ethidium bromide (EB), PI and YoPro staining (in FIG. 1), Fluorescence-Activated Cell Sorting (FACS) analysis and mtt assay, Annexin V and PI staining analyzed by flow cytometry (in FIGS. 3A, 3B, 4A, 4B, 4C, 5A and 5B).

Data set [2] deals with human HCC cell line HepG2 and THP-1 cells. Description: Cell apoptosis/necrosis, Annexin V and PI flow cytometry (FIG. 5B). Format: cell-based. The conditions noted are these: for cell death: HepG2 and THP-1, 200 μg/ml. The method, then:
(§3) Analysis of Cell Apoptosis/Necrosis: Cells were plated into 24-well plates with the density of 1×10^5 cells/well, and cultured for 48 hours before treatments. The 5 bp polyA:polyU and its analogue, control Poly(A:U) and Poly(I:C) were added at the final concentration of 200 μg/ml into the cell culture supernatants. Cells without treatment were the negative control and the cells treated with 1 μg/ml Lipopolysaccharide (LPS) were the positive control. After incubation for specified time, the cells were harvested and washed with ice-cold PBS, resuspended in 100 μl AnnexinV binding buffer at a concentration of 1×10^5 cells/100 μl and incubated with 2 μl AnnexinV-FITC for 15 minutes at room temperature in the dark. Samples were washed with binding buffer and resuspended again in 100 μl same buffer. After adding 5 μl Propidium Iodide (PI), the samples were diluted with binding buffer and analyzed by flow cytometry (BD Biosciences). Apoptotic cells were identified as an AnnexinV-FITC-positive/PI-negative population.
as §2
A general note: A flow cytometer gives signals particle by particle.

Data set [3] relates to THP-1 cells. Description: Cytokine production in THP-1 cells (ELISA / Bio-Plex). Format: cell-based, human. The protocol: as §1, §2
Background: ELISA stands for enzyme-linked immunosorbent assay.

Data set [4] relates to human HCC lines Huh7, PLC/PRF/5, HepG2, primary liver cancer cells P7NSG59410 and P31NSG55368. The data set is described as follows: MTT cytotoxicity and anti-proliferative effect on human liver cancer cells (FIGS. 4A, 4B). The format is cell-based. The protocol:
Analysis of Growth Curve: Cell lines were seeded at different initial densities in the 96-well plate for 7 days. The medium was changed every day. The viability and metabolic rate of cultured cells was determined daily by assaying the reduction of 3-(4,5-dimethyl thiazol-2-yl)-2,5-diphenyl tetrazolium bromide (MTT) to formazan. After incubation period, MTT was added into each well in final concentration of 0.5 mg/ml, and incubated at the same condition for 4 h. Then the formazan was collected and dissolved in 120 ul DMSO. The absorption was measured at 560-562 nm in an ELISA reader with 620 nm as reference wave.
(§4) Analysis of Cytotoxicity and Anti-Proliferative Effect on Cells: Cytotoxicity was measured by MTT assay. Cells were seeded with the density of 5×10^3 cells/well in 96-well plate and incubated for 48 hours in a cell culture incubator, before being treated with compounds. Each compound was dissolved in RNase and DNase free PBS, and diluted to certain concentrations by the same PBS before being added into the cell culture supernatant. The final concentrations of 5 bps pA:pU were 50, 100, 150 and 200 μg/ml, and the gradient of 5 bps pA:pU s analogue was 50, 100, 300, 500 μg/ml. Poly(A:U) and Poly(I:C) were added at the final concentration of 200 μg/ml as controls. Cells without any treatment were the negative control. After incubation for specified times in the cell culture incubator, MTT reagent was added to the cells for the assay as described above.
(§5) Experiments carried out in vitro compare low molecular weight dsRNAs (<15 bps) with high molecular weight dsRNAs (>70 bps). […] The pro-inflammatory effect of low molecular weight dsrnas is evaluated by measuring cytokine production using elisa (r&d systems) in FIG. 3a as well as in FIG. 3b. cell proliferation, death, and apoptosis are measured by Ethidium bromide (EB), PI and YoPro staining (in FIG. 1), Fluorescence-Activated Cell Sorting (FACS) analysis and mtt assay, Annexin V and PI staining analyzed by flow cytometry (in FIGS. 3A, 3B, 4A, 4B, 4C, 5A and 5B).

The test system of data set [5] is mouse liver cancerous cell line BNL 1ME A.7R.1. The data set is described as follows: MTT cytotoxicity on mouse liver cancerous cell line (FIG. 4B). Format: cell-based. Particulars: dose-effect. The method, then: as §4
Data set [6] concerns human HCC cell line PLC/PRC/5 and human HCC cell line Huh7. Description: Cell apoptosis/necrosis, Annexin V and PI flow cytometry (FIG. 5A). Particulars: for cell death: PLC/PRC/5 and Huh7, 200 μg/ml. The format is cell-based. The protocol: as §3, §2
In data set [7] the test system is THP-1, PLC/PRC/5, Huh7 and HepG2 cells. Description: Cytotoxicity, cell death and apoptosis of higher molecular weight dsRNA and controls (FIGS. 3A, 3B, 5A and 5B). Format: cell-based. The method, then:
as §4
Analysis of Cell Apoptosis/Necrosis: Cells were plated into 24-well plates with the density of 1×10^5 cells/well, and cultured for 48 hours before treatments. The 5 bp polyA:polyU and its analogue, control Poly(A:U) and Poly(I:C) were added at the final concentration of 200 μg/ml into the cell culture supernatants. Cells without treatment were the negative control and the cells treated with 1 μg/ml Lipopolysaccharide (LPS) were the positive control. […] After adding 5 μl Propidium Iodide (PI), the samples were diluted with binding buffer and analyzed by flow cytometry (BD Biosciences). […]
as §5

In data set [8] the test system is PLC/PRC/5 and THP-1 cells. Description: TNFalpha and IL-6 induction by higher molecular weight dsRNA and controls (FIGS. 3A, 3B). Format: cell-based, human. The protocol:
as §1, §5

Data set [9] deals with human liver cancer cell lines Huh7 and HepG2. Description: MTT assay of Lipofectamine formulated vs unformulated pA:pU (FIG. 6). The format is cell-based. Particulars: Huh7 and HepG2, 24 hour treatment. The method, then:
In one embodiment, 5 bp dsRNAs are formulated using Lipofectamine 2000 to form lipid-based nanoparticles. One exemplary method follows the steps of: 1) in a microfuge tube 1.5 ul of Lipofectamine was diluted to a final volume of 23.5 ul using the appropriate media (per cell type); 2) 25 ul of the appropriate 5 bp dsRNAs analog dilution (to achieve the desired final per well concentration) was added to the diluted Lipofectamine and the mixture was incubated at Room Temperature (RT) for 5 minutes to form lipo-complexes; 3) 250 ul of the appropriate media was added to achieve a final volume of 300 ul; 4) 100 ul of the mixture from step 3 was added to each replicate and the cells was incubated for 24 hours.
Huh7 and HepG2 Cells were plated in a 96 well plate at a density of 2500 cells per well. Cells were incubated for 24 hours. After 24 hours of incubation, the medium was removed and cells were treated with various formulations of 5 bp pA:pU in triplicate in their respective culture mediums with […] 10% FBS. Untreated cells and Dox (10 uM) were used as controls. Cells were incubated for an additional 24 hours. After the 24 hour drug treatment, the medium was removed. Fresh culture medium will be added and the MTT assay was performed using the Life Technologies Vybrant MTT kit. […] The plate was read at 570 nm.
(In general: Formazan colour is commonly taken as a measure of viable cells.)

Data set [10] has as its system cell line emulating normal hepatocytes. The data set is described as follows: TNF-alpha production in a cell line emulating normal hepatocytes. Format: cell-based, human. The method, then: as §1
The subject of data set [11] is THLE2 cells. Description: MTT cytotoxicity on THLE2 cells emulating normal human liver cells (FIG. 4C). The format is cell-based. The method, then:
as §4

Data set [12] relates to THP-1 cells. Description: MTT cytotoxicity on THP-1 cells (FIG. 4C). The format is cell-based, human. Particulars: THP-1, dose-effect. The protocol:
as §4, with “After incubation for specified times in the cell culture incubator, MTT reagent was added to the cells for the assay as described above.” left out
as §5

The test system of data set [13] is human primary fibroblasts. The data set is described as follows: MTT cytotoxicity on human primary fibroblasts (FIG. 4C). Format: cell-based. The protocol:
as §4

Where [14] appears, read: Huh7, PLC/PRF/5, HepG2, P7NSG59410, P31NSG55368.

Like-named read-outs stand apart in the source and are kept apart here.

Consider “2O′-methyl analogue of 5 base pairs polyA:polyU”, for which, in [1], the TNFalpha induction result was “elevated”. Also, the cell death result in [2] and in [6] was “attenuated cytotstatic/cytotoxic profile” each time. The “cytokine production by monocytes” value in data set [3] (relative to native 5 bps pA:pU) was “attenuated”. Moreover, the “cell growth inhibition and death inducing properties” value in data set [4] (setting [14]) is recorded as “significantly attenuated”; in data set [4] (Huh7, PLC/PRF/5, HepG2, P7NSG59410, P31NSG55368, listed as 2O′-methyl analogue), “less potent”; in data set [5] it was “attenuated cytotstatic/cytotoxic profile”.
As for “polyinosinic:polycytidylic acid [pI:pC, reference compound]”, the “cell death or apoptosis” value in [7] (FIGS. 3A, 3B, 5A and 5B) is “minimal cell death or apoptosis”. The “cytotoxicity or anti-proliferative effect” value in data set [7] (FIGS. 3A, 3B, 5A and 5B) was “no cytotoxicity or anti-proliferative effect”; in data set [2] (HepG2 and THP-1) it was “no cytotoxicity or anti-proliferative effect”; in [6] (PLC/PRC/5 and Huh7) it was “no cytotoxicity or anti-proliferative effect”. Also, the cell death entry in data set [2] and in [6] was “minimal cell death or apoptosis” throughout. The IL-6 inducing capabilities entry in data set [8] is given as “negligible”. For the same substance, the TNFalpha inducing capabilities entry in [8] was “negligible”.
Take “5 base pairs polyadenylic-polyuridylic acid [5 bps pA:pU]”: in data set [7], the “primary mechanism of cytotoxicity” value is reported as “cytolysis, with a minimal apoptosis component”. Further, the TNFalpha induction entry in data set [1] and in data set [3] (THP-1 cells) was “substantially induced” throughout. In addition, the IL-6 induction result in data set [1] (PLC/PRC/5 cells) and in [3] (THP-1 cells) was “substantially induced” in each case. Moreover, the cell death entry in data set [2] and in data set [6] was “induces cell death” each time. The “biological activity in MTT assay” value in data set [9] is recorded as “more biologically active than 15 bps”. Further, the TNF-alpha production entry in [10] was “blunted”. The “cell growth inhibition and death inducing properties” value is “cell growth inhibition and death inducing properties” in [4] (setting [14]); “cell growth inhibition and death inducing properties” in data set [5]; “anti-proliferative, pro-death effect” in data set [12] (listed as low molecular weight dsRNA (5 bps)); “cell growth inhibition and death inducing properties” in data set [12] (listed as polyA:polyU of 5 bps). The “cytotoxicity on cells emulating normal human liver cells” value is “only a modest effect” in data set [11], “more refractory” in data set [11] (listed as 5 bp polyA:polyU) and “more attenuated cytotoxicity profile” in data set [11] (listed as low molecular weight dsRNA of 5 bps). Also, the “cytotoxic or anti-proliferative effect on fibroblasts” value in [13] was “cytotoxic or anti-proliferative effect”; in data set [13] (listed as 5 bp polyA:polyU), “sensitive”.
